# Laboratory results taken from patent US10329542B2, “HBV RNAse H purification and enzyme inhibitors” (Saint Louis University, priority 2012, dated 2019).
# Entries after “also recorded” stand apart in the source; their conditions may differ.
# Tests used:
# HBV = HBV genomic replication assays (Table 2); type: cell-based, Hepatitis B virus; settings: class by active concentration
# Procedure, shortened: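 Huh7 cells transfected with HBV plasmid received compound at 10 or 50 μM, refreshed every 1-2 days. Core-particle DNA isolated 4-5 days post-transfection was analysed by Southern blot, with or without RNaseH. For the screen, replicating cells got 60, 20 or 6.7 μM, refreshed days 1-2, and plus-strand DNA was quantified on day 3 by cross-gap TaqMan PCR.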
# HBV genotype H RNAseH = assay: Oligonucleotide-directed RNAseH cleavage assay, HBV genotype H; type: biochemical, Hepatitis B virus; settings: for Inhibition of HBV genotype H RNAseH / Residual activity at 10 uM, Genotype H: 10 μM; for Inhibition of HBV genotype H RNAseH: below threshold of irrelevant controls; for Residual activity at 10 uM, Genotype H: ± standard deviation, 3 to 7 replicates
# Experimental: For the oligonucleotide-directed RNAseH cleavage assay (Gong et al., 2001), 6 μl protein extract (typical protein concentration 2.8 mg/ml) was mixed with 0.5 μg internally ^32P-labeled DRF+ RNA (nucleotides 2401-2605 of the duck HBV genome plus 60 nucleotides of flanking sequences from pBluescript) and 3 μg oligonucleotide D2507- or its corresponding negative control D2526+ on ice in 20 μl under the conditions in Table 1. Some reactions in FIG. 5 employed oligonucleotide D2543M-Sal or its D2453+ negative control as indicated. The reactions were incubated at 42° C. for 90 min. and terminated by addition of Laemmli protein loading buffer and boiling. The samples were resolved by 12% SDS-PAGE, the gels were stained with Coomassie blue to monitor protein loading, and labeled RNA was detected by autoradiography. Candidate inhibitors were dissolved in DMSO and added at the indicated concentrations during assembly of the reactions. Control reactions lacking the compounds contained DMSO as a vehicle control. The RNAseH autoradiograms were scanned and quantified with ImageJ. The oligonucleotides were: D2526+([…]; SEQ ID NO:8), D2507-([…]; SEQ ID NO:9), D2453+([…]; SEQ ID NO:10), and D2543M-Sal ([…]; SEQ ID NO:11).
# Oligonucleotide-directed RNAseH cleavage assays (Gong et al., 2001) were performed as described (Tavis et al., 2013). Briefly, HBV RNAseH extracts were mixed with a 264 nt-long internally ^32P-labeled RNA plus an excess of a complementary DNA oligonucleotide or its inverse-complement as a negative control in a final concentration of 65 mM Tris pH 8.0, 190 mM NaCl, 5 mM MgCl2, 5 mM dTT, 0.05% NP40, and 6% glycerol. βTJ was dissolved in DMSO and added at the indicated concentrations; the final concentration of DMSO in all reactions was 1%. The reactions were incubated at 42° C. for 90 min. and terminated by addition of Laemmli protein electrophoresis buffer. The samples were resolved by SDS-PAGE, labeled RNA was detected by autoradiography, the autoradiograms were scanned, and the RNA cleavage products were quantified with ImageJ (National Institutes of Health). IC50 values were calculated by non-linear regression using GraphPad Prism (GraphPad Software, Inc.).
# human RNAseH1 = biological target: T1, human RNAseH1 (Homo sapiens, UniProt O60930); assay: Oligonucleotide-directed RNAseH assay, recombinant human RNAseH1; type: biochemical; settings: for Activity vs. human RNAseH1: class by concentration giving inhibition (10, 20, 60 μM); for Inhibition of human RNAseH1: 10 μM, compared directly with HRHPL
# T1 construct: hexahistidine (N); made in house; host or cells: E. coli BL21 codon+
# T1 sequence (O60930 1-286): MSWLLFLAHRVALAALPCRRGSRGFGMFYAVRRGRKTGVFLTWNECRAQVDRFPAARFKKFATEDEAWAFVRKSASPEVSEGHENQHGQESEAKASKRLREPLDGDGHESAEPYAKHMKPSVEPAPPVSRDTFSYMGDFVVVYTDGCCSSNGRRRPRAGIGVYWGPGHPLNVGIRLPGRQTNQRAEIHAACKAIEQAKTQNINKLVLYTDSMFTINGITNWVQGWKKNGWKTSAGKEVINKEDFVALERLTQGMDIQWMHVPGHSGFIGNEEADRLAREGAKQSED
# Procedure, shortened: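 His-tagged human RNAseH1, expressed in E. coli and titrated to an activity matching the HBV enzyme, was incubated with internally 32P-labelled RNA plus a complementary DNA oligonucleotide. Reactions ran for 90 min at 42 °C in 65 mM Tris pH 8.0, 190 mM NaCl and 5 mM MgCl2, with 1% DMSO. Cleavage was measured by SDS-PAGE autoradiography.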
SMILES,Activity vs. HBV Genomic Replication (HBV),Inhibition of HBV genotype H RNAseH (HBV genotype H RNAseH),"Residual activity at 10 uM, Genotype H (HBV genotype H RNAseH)",Activity vs. human RNAseH1 (human RNAseH1),"Effect on human RNAseH1 (human RNAseH1; 0, 5, or 20 μM)","Effect on human RNAseH1 activity (human RNAseH1; 0.02 to 100 μM, listed as βTJ)",IC50 (HBV genotype H RNAseH; read-out: IC50 against HBV genotype H RNAseH),Inhibition of human RNAseH1 (human RNAseH1)
COc1ccc2ccccc2c1C=NNC(=O)c1cc(O)c(O)c(O)c1 [Compound 14],− (− no activity at 60 μM),inhibited,27 ± 13 Percent DMSO control,,,,,
Cc1cc(=O)oc2cc(O)c(O)cc12 [Compound 34],− (− no activity at 60 μM),inhibited,33 ± 12 Percent DMSO control,+ (+ inhibition at 60 μM),,,,
"CC(C)c1ccc(O)c(=O)c(O)c1 [Compound 46, beta-thujaplicinol]","++ (++, clear activity at <10 μM)",,,− (− no inhibition at 60 μM),had little effect on the human RNAseH1,had no effect on RNAseH1 activity; also recorded: failed to inhibit recombinant human RNAseH1,2.3 ± 1.7 µM,
[N-]=[N+]=NCc1cccc(C(=O)CC(=O)C(=O)O)c1 [Compound 40],− (− no activity at 60 μM),inhibited,22 ± 2 Percent DMSO control,,,,,
Cc1c2cc(O)c(=O)cc-2oc2cc(O)c(O)cc12 [Compound 8],− (− no activity at 60 μM),,74 ± 21 Percent DMSO control,+++ (+++ inhibition at 10 μM),,,,inhibited RNAseH1 well
"NCc1ccc(-c2ccc(Cc3cc(=O)n(O)c4ncccc34)cc2)cc1 [Compound 12, napthyridinone]","++ (++, clear activity at <10 μM)",inhibited,17 ± 6 Percent DMSO control,,,,,inhibited it weakly
CCOc1ccc(-c2c3cc(O)c(=O)cc-3oc3cc(O)c(O)cc23)cc1 [Compound 30],"+ (+, activity detectable at >10 μM)",,37 ± 8 Percent DMSO control,+++ (+++ inhibition at 10 μM),,,,
"COc1cc2c(cc1Cc1cccc(Cl)c1F)c(=O)c(C(=O)O)cn2[C@H](CO)C(C)C [Compound 10, Elvitegravir, reference compound]",− (− no activity at 60 μM),,66 ± 21 Percent DMSO control,− (− no inhibition at 60 μM),,,,had no effect on RNAseH1
"Cc1nnc(C(=O)NC(C)(C)c2nc(C(=O)NCc3ccc(F)cc3)c(O)c(=O)n2C)o1 [Compound 11, Raltegravir, reference compound]",− (− no activity at 60 μM),,63 ± 21 Percent DMSO control,− (− no inhibition at 60 μM),,,,had no effect on RNAseH1
